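Cultured in 96-well plates, cells were exposed to test compound for 48 hours across five concentrations. Here, GI50 denotes the concentration required for 50% inhibition of growth.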 Activity calls are given as the source filed them. Rule as the data show it: active = GI50 up to about 1.1 µM and inactive = higher.
Experiments:
Test in all cases: inhibition of tumour cell growth, NCI panel, 48 h
[1] = system: SK-MEL-5
[2] = system: HOP-92
[3] = system: A498
[4] = system: SF-539
[5] = system: SF-268
[6] = system: MDA-N
[7] = system: MCF7
[8] = system: SNB-75
[9] = system: Malme-3M
[10] = system: M14
[11] = system: NCI/ADR-RES
[12] = system: SK-MEL-28
[13] = system: NCI-H460
[14] = system: COLO 205
[15] = system: MOLT-4
[16] = system: HCT-116
[17] = system: K562

Measured: GI50

OC1OC(c2ccc[nH]2)C(F)(F)C(F)(F)C1(F)F (stereo not given)
inactive: [1] 63.4 µM | [2] 68.4 µM | [3] > 100 µM | [4] > 100 µM | [5] > 100 µM | [6] > 100 µM | [7] > 100 µM | [8] 60.8 µM | [9] > 100 µM | [10] > 100 µM | [11] > 100 µM | [12] > 100 µM | [13] > 100 µM | [14] 26.7 µM | [15] > 100 µM | [16] > 100 µM

O=c1[nH]c(=S)c2cc3c(=S)[nH]c(=O)n(CCC(c4ccccc4)(c4ccccc4)c4ccccc4)c3nc2n1CCC(c1ccccc1)(c1ccccc1)c1ccccc1
inactive: [1] > 100 µM | [2] > 100 µM | [3] > 100 µM | [5] > 100 µM | [6] > 100 µM | [7] > 100 µM | [8] > 100 µM | [9] > 100 µM | [10] > 100 µM | [11] > 100 µM | [12] > 100 µM | [13] > 100 µM | [17] 24.8 µM | [14] > 100 µM | [15] 15.4 µM | [16] > 100 µM

OCCCc1cc(O)c2c(c1)C(CO)C(c1ccc(O)c(O)c1)O2 (stereo not given)
inactive: [1] > 100 µM | [2] > 100 µM | [3] > 100 µM | [4] > 100 µM | [5] > 100 µM | [6] > 100 µM | [7] > 100 µM | [9] > 100 µM | [10] 76.6 µM | [11] > 100 µM | [12] > 100 µM | [13] > 100 µM | [17] > 100 µM | [14] > 100 µM | [15] > 100 µM | [16] > 100 µM

CC(C)CCC[C@@H](C)[C@H]1CC[C@H]2[C@@H]3CC[C@H]4C[C@H](N)CC[C@]4(C)[C@H]3CC[C@]12C
inactive: [1] 21.5 µM | [2] 11.7 µM | [3] 22.2 µM | [5] 26 µM | [6] 30.9 µM | [7] 23.8 µM | [8] 18.5 µM | [9] 17.2 µM | [10] 13.8 µM | [11] 26.7 µM | [12] 28.3 µM | [13] 22 µM | [17] 24.5 µM | [14] 21 µM | [15] 11.3 µM | [16] 30.1 µM

Cc1cc2c(cc1-c1cc3c(cc1C)C(C(C)C)=C(O)C(=O)/C3=C\Nc1cccc3c(N)cccc13)/C(=C/Nc1cccc3c(N)cccc13)C(=O)C(O)=C2C(C)C
inactive: [1] > 100 µM | [2] > 100 µM | [3] > 100 µM | [5] > 100 µM | [6] > 100 µM | [7] > 100 µM | [8] > 100 µM | [9] > 100 µM | [10] 48.5 µM | [11] > 100 µM | [12] > 100 µM | [13] > 100 µM | [17] 54.3 µM | [14] > 100 µM | [15] 37.4 µM | [16] > 100 µM

CN(C)CCNS(=O)(=O)N(C)C
inactive: [1] > 100 µM | [2] > 100 µM | [3] > 100 µM | [4] > 100 µM | [5] > 100 µM | [6] > 100 µM | [7] > 100 µM | [8] > 100 µM | [9] > 100 µM | [10] > 100 µM | [11] > 100 µM | [12] > 100 µM | [13] > 100 µM | [17] > 100 µM | [14] > 100 µM | [15] > 100 µM | [16] > 100 µM

O=S(=O)(/N=S(/Nc1ccccc1)C(F)(F)Cl)c1ccccc1 (stereo not given)
inactive: [1] > 100 µM | [2] > 100 µM | [3] > 100 µM | [4] > 100 µM | [5] > 100 µM | [6] > 100 µM | [7] > 100 µM | [8] > 100 µM | [9] > 100 µM | [10] > 100 µM | [11] > 100 µM | [12] > 100 µM | [13] > 100 µM | [17] > 100 µM | [14] > 100 µM | [15] > 100 µM | [16] > 100 µM

C1CNOCCCONCCCNOCCCONC1
inactive: [1] > 100 µM | [2] 26.1 µM | [3] 42.5 µM | [5] 85.9 µM | [6] > 100 µM | [7] 37.5 µM | [8] > 100 µM | [9] 30.1 µM | [10] 72.1 µM | [11] 95.3 µM | [12] > 100 µM | [13] 32.1 µM | [17] > 100 µM | [14] > 100 µM | [15] > 100 µM | [16] > 100 µM
